Data reported in patent US20230255939A1, “Antimicrobial Agent for Non-Human Animal” (ISHIHARA SANGYO KAISHA, LTD, priority 2020, published 2023).
Converted amounts (≈) assume the structure as drawn.

Tests used:
[1] = tested on: Malassezia pachydermatis (IFM56528); test: Antifungal activity test, fungicidal concentration after 1 minute contact (Test Examples 10-1 and 10-2); type: cell-based; settings: for half fungicidal concentration MFC50: M. pachydermatis IFM56528, colony formation inhibition rate of 50%; for 90% fungicidal concentration MFC90: M. pachydermatis IFM56528, colony formation inhibition rate of 90%; for MFC: Malassezia pachydermatis, 1 min, M. pachydermatis IFM56528, no colony growth, read-out: Minimum fungicidal concentration MFC100
Experimental: Test Example 10-1: Antifungal Activity Test
Test Compound: Compound No. 6
(§1) Test Microbial Strain: Malassezia Pachydermatis (IFM56528)
The Malassezia microbe (Malassezia pachydermatis) cultured for 5 to 7 days in a Sabouraud medium (1% peptone, 4% dextrin, 1.5% agar) was suspended in physiological saline, and a suspension thereof was prepared in such a way as to have an absorbance of 0.025 at 600 nm. Thereto, the test compound dissolved in DMSO was added in such a way as to provide a final concentration of 70, 65, 64, 60, 55, 45, 40, 35, 32, 20, 18, or 8 ppm, and after 1 minute, 10 µL of the suspension and 10 mL of physiological saline were placed in a syringe and stirred, and the syringe was connected to a 37 mm Quality Monitor (manufactured by Pall Corporation) followed by filtration and washing. The membrane filter was impregnated as it was with the Sabouraud medium and subjected to culturing at 32° C. for 72 hours, the presence or absence of colony growth was investigated, and the concentration at which there was no colony growth was determined as the minimum fungicidal concentration (MFC100). When there was colony growth, the number of colonies formed there (the number of colonies in the inventive plot) and the number of colonies in a solvent to which the test compound was not added (the number of colonies in the non-agent treated plot) were measured, the colony formation inhibition rate (%) was determined according to the following expression, and the concentration showing a colony formation inhibition rate of 90% was determined as the 90% fungicidal concentration (MFC90), and the concentration showing a colony formation inhibition rate of 50% was determined as half fungicidal concentration (MFC50).
Colony formation inhibition rate (%) = [(number of colonies in non-agent treated plot - number of colonies in inventive plot)/number of colonies in non-agent treated plot] × 100
Test Example 10-2: Antifungal Activity Test
Test Compound: Compound No. 1
The Malassezia microbe (Malassezia pachydermatis) cultured for 5 to 7 days in a Sabouraud medium (1% peptone, 4% dextrin, 1.5% agar) was suspended in physiological saline, and a suspension thereof was prepared in such a way as to have an absorbance of 0.025 at 600 nm. Thereto, the test compound dissolved in DMSO was added in such a way as to provide a final concentration of 500, 250, 200, 190, 180, 170, 160, 150, 140, 130, 125, 120, 110, 100, 90, 80, 70, or 64 ppm, and after 1 minute, 10 µL of the suspension and 10 mL of physiological saline were placed in a syringe and stirred, and the syringe was connected to a 37 mm Quality Monitor (manufactured by Pall Corporation) followed by filtration and washing. The membrane filter was impregnated as it was with the Sabouraud medium and subjected to culturing at 32° C. for 72 hours, the presence or absence of colony growth was investigated, and the concentration at which there was no colony growth was determined as the minimum fungicidal concentration (MFC100). When there was colony growth, the number of colonies formed there (the number of colonies in the inventive plot) and the number of colonies in a solvent to which the test compound was not added (the number of colonies in the non-agent treated plot) were measured, the colony formation inhibition rate (%) was determined according to the following expression, and the concentration showing a colony formation inhibition rate of 90% was determined as the 90% fungicidal concentration (MFC90), and the concentration showing a colony formation inhibition rate of 50% was determined as half fungicidal concentration (MFC50).

[2] = tested on: Malassezia pachydermatis (IFM56528); test: Antifungal activity test, inhibitory concentration by WST-8 viability in 96-well plate (Test Example 11); type: cell-based; settings: M. pachydermatis IFM56528, 32° C. for 72 hours; for MIC: viability 0%, read-out: Inhibitory concentration MIC100; for MIC50: viability 50%
Experimental: Test Example 11: Antifungal Activity Test
Test Compounds: Compound No. 1 and Compound No. 6
as §1
The Malassezia microbe (Malassezia pachydermatis) cultured for 5 to 7 days in a Sabouraud dextrose medium (1% peptone, 4% dextrose) was suspended in physiological saline and a Malassezia microbe suspension was prepared in such a way as to have an absorbance of 0.0025 at 600 nm. The microbe suspension was placed in a 96-well plate at 190 µL/well, and 10 µL of the test compound dissolved in DMSO was added thereto in such a way as to provide a final concentration of 500, 250, 125, 62.5, 31.25, 16, 8, 4, 2, 1, or 0.5 ppm, and the 96-well plate was subjected to culturing at 32° C. for 72 hours. After culturing, 20 µL each of WST-8 (viable cell counting reagent, manufactured by Nacalai Tesque, Inc.) was added, and the 96-well plate was kept warm at 32° C. for 5 hours to develop a color. The absorbance at 450 nm was measured using a microplate reader (SpectraMax M2, manufactured by Molecular Devices, LLC). The absorbance of a well to which the test compound was added (absorbance in the inventive plot) and the absorbance of a well in the solvent to which the test compound was not added (absorbance in the non-agent treated plot) were measured, the viability (%) of the Malassezia microbe was determined according to the following expression, and the agent concentration at which the viability was 0% was defined as the minimum inhibitory concentration (MIC100). Further, the agent concentration at which the viability was 50% was defined as the half inhibitory concentration (MIC50).
[…] = [(absorbance in non-agent treated plot - absorbance in inventive plot)/absorbance in non-agent treated plot] × 100

| MIC90 [2] [µg/mL] | MIC [2] [µg/mL] | MIC50 [2] [µg/mL] | Structure (SMILES) | half fungicidal concentration MFC50 [1] [ppm] | 90% fungicidal concentration MFC90 [1] [ppm] | MFC [1] [µg/mL] |
| --- | --- | --- | --- | --- | --- | --- |
| 4 (≈ 15.9 µM) | 4 (≈ 15.9 µM) | 2 (≈ 7.93 µM) | Cc1ccc(-c2nc(C#N)[nH]c2Cl)cc1Cl [Compound No. 6, 5-chloro-4-(3-chloro-4-methylphenyl)-1H-imidazole-2-carbonitrile] | 8 | 20 | 40 (≈ 159 µM) |
| 16 (≈ 73.5 µM) | 16 (≈ 73.5 µM) | 8 (≈ 36.8 µM) | Cc1ccc(-c2nc(C#N)[nH]c2Cl)cc1 [Compound No. 1, 5-Chloro-4-(4-methylphenyl)-1H-imidazole-2-carbonitrile] | 64 | 130 | 160 (≈ 735 µM) |
